One data set has as its system rat cardiomyocytes. The note with it: cited from earlier work.
The test system of data set [1] is isolated guinea pig hearts. The conditions noted are these: cited from earlier work.
Data set [2] has as its system mice. The note with it: cited from earlier work.
In data set [3] the test system is rat and guinea pig brain slices. The note with it: cited from earlier work.
A further data set has as its system anesthetized rats. The conditions noted are these: cited from earlier work.
Data set [4] has as its system mice. The note with it: interpreted as skeletal muscle relaxation; cited from earlier work.
For the next data set, the system named is dog hearts. The note with it: cited from earlier work.
Another data set concerns isolated rat hearts. The note with it: perfused with 5-iodotubercidin alone, cited from earlier work.
For another data set, the system named is ischemic cerebral injury. The note with it: Phillis et al.; cited from earlier work.
Data set [5] relates to male SA rats. Kind of data set: Analgesic activity, hot plate model. Format: in vivo. The note with it: Rattus norvegicus, po. An excerpt:
(§1) Ther., 250:3, 915-922 (1989). See also, Life Sciences 51:171-76 (1992). These models measure pain avoidance and tolerance in response to a regulated stimulus, and compare the response of animals before and after they are given test compound.

The test system of data set [6] is male SA rats. Put plainly: Anticonvulsant activity, maximal electroshock (MES) model, suppression of hind limb tonic extension. The conditions noted are these: Rattus norvegicus, 1 h, one hour before seizure testing. In kind it is in vivo. (The maximal electroshock test induces tonic seizures with an electrical stimulus.)
Data set [7] concerns carrageenan-induced paw swelling in rats. Kind of data set: Anti-inflammatory activity, carrageenan paw swelling. In kind it is in vivo, rat. The note with it: po, 10 mg/kg, paw swelling 3 hours after carrageenan, vs vehicle. As for the experimental part:
Carrageenan (Type λ) was suspended in sterile PBS at 1% (w/v), autoclaved for 30 minutes, and stored at room temperature. Rats were pretreated with vehicle or AK inhibitor (10 mg/kg) by oral gavage or i.p. administration and the volume of the left hind paw was measured using a water displacement plethysmometer (Stoelting Co., Wood Dale, Ill.). One hour after oral treatment or 30 minutes after i.p. treatment, the rats were briefly anesthetized, and 0.1 ml of the carrageenan solution was injected subcutaneously into the planar surface of the left hind paw. The ensuing paw swelling was measured by plethysmometry after 3 hours. The paw volume in millileters was subtracted from the pre-injection paw volume. Data are presented as the percent inhibition of paw swelling in AK inhibitor treated animals, compared to vehicle treated control animals.
(The carrageenan paw model is a standard test of acute inflammation.)

In data set [8] the target is T1, partially purified pig heart adenosine kinase (Sus scrofa, UniProt A0A5G2R0F5).
T1 construct: partially purified pig heart adenosine kinase; from tissue; host or cells: pig heart
T1 sequence (A0A5G2R0F5 1-362): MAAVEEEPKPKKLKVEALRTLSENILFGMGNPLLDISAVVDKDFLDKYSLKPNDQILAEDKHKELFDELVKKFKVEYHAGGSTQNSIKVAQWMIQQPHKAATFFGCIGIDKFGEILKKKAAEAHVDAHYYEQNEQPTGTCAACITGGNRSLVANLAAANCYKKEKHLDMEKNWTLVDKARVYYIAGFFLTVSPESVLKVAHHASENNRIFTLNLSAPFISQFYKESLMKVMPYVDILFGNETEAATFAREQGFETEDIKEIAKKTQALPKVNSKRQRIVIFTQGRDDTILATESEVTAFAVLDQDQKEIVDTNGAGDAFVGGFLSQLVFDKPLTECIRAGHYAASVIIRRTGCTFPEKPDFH
Kind of data set: Adenosine kinase (AK) inhibition. In kind it is biochemical. The method, then:
Adenosine kinase activity was measured essentially as described by Yamada et al. Biochim. Biophys. Acta 660, 36-43 […] with a few minor modifications. Assay mixtures contained 50 mM TRIS-maleate buffer, pH 7.0, 0.1% BSA, 1 mM ATP 1 mM MgCl2, 0.5 μM [U-^14 C]adenosine (400-600 mCi/mmol) and varying duplicate concentrations of inhibitor. The reactions were initiated by addition of approximately 0.1 μU partially purified pig heart adenosine kinase, where one unit is defined as that amount of enzyme required to phosphorylate 1 μmol adenosine per minute. The reactions were incubated for 20 minutes at 37° C. The assay was quenched upon spotting 30 μL aliquots onto 2 cm^2 pieces of Whatman DE81 anion exchange paper. The paper squares were washed for 3 minutes in 6 L distilled/deionized water to remove the unreacted adenosine. […] The amount of ^14 C-AMP was quantified by scintillation counting.

Data set [9] deals with male SA rats. Kind of data set: Analgesic activity, tail flick model. In kind it is in vivo. The conditions noted are these: Rattus norvegicus, po.
Source text: as §1

A short description of data set [10]: Oral bioavailability in dogs (oral vs intravenous AUC). In kind it is in vivo, dog (female beagles). The conditions noted are these: dog, plasma, 10 mg/kg, read-out: % Oral Availability. The method, then:
Oral bioavailability was determined by comparing the dose corrected areas under the plasma-concentration time curve (AUC) to infinity for the each tested compound, given orally and intravenously in dogs. […] One dog received this solution at an infusion rate of 0.1 mL/min for 20 minutes. The other dog received a 0.2 mL/in infusion for 10 minutes. […] The plasma was separated within 10 minutes of blood collection and was stored frozen. The plasma concentration of compound was then determined for these IV infusions. […] The plasma concentration of compound was determined for this oral administration. The samples were assayed for intact adenosine kinase inhibitor by high performance liquid chromatography (HPLC). An internal standard was added to each test sample and standard sample. Each was then extracted with 10 volumes of 1% v/v dimethylsulfoxide in acetonitrile. […] The dried residue was reconstituted in mobile phase and the contents were analyzed for the adenosine kinase inhibitor (AKI) on HPLC. […] Pharmacokinetic parameters were calculated from the plasma concentration vs. time data, using standard non-compartmental methods. […] et al., Pharmacokinetics., 2[…]. (1983).

Where [11] appears, read: po, fasted, read-out: Anticonvulsant ED50 (MES), po.

Here are results for seven compounds from patent US5721356A, “Orally active adenosine kinase inhibitors” (Gensia, Inc., priority 1995, dated 1998).

Each structure is given as a SMILES string. Where two headings read alike, the source gives them in different places. A value given as a limit tells only on which side of the number the result lay.

In the case of `OC[C@H]1O[C@@H](n2cnc3c2NC=NC[C@H]3O)C[C@@H]1O` [2'-deoxycoformycin], the “effect on adenosine release” value in the data set on rat cardiomyocytes (inhibition of adenosine deaminase alone) is given as “no effect on adenosine release from the cells”.

For the compound `NC[C@H]1O[C@@H](n2cnc3c(N)ncnc32)[C@H](O)[C@@H]1O` [5'-amino-5'-deoxyadenosine], the “increase in adenosine release” value in the data set on rat cardiomyocytes (inhibition of ADA together with adenosine kinase) is on record as 6 fold. Moreover, in data set [1] (absence of ADA inhibition), the “adenosine release effects without ADA inhibition” value was “not apparent in the absence of ADA inhibition”. The “increase of adenosine release” value in [1] (perfusion medium, in the presence of EHNA) is reported as 15 fold.

Turning to `C[C@H]1O[C@@H](n2cc(I)c3c(N)ncnc32)[C@H](O)[C@@H]1O` [5'-deoxy-5-iodotubercidin], the hypothermia result with mice [2] is listed as “hypothermia in mice”. Also, in data set [3], the adenosine uptake result was “adenosine uptake was reportedly inhibited”. In addition, the “blood pressure and heart rate” value with anesthetized rats was “decrease blood pressure and heart rate in anesthetized rats”. In addition, the “flaccidity and spontaneous locomotor activity” value in the data set on mice [4] is “pronounced general flaccidity and much-reduced spontaneous locomotor activity in mice”.

For the compound `Nc1ncnc2c1c(I)cn2[C@@H]1O[C@H](CO)[C@@H](O)[C@H]1O` [5-iodotubercidin], the hypothermia entry in the data set with mice [2] was “hypothermia in mice”. Also, the “effects in ischemia and reperfusion model” value with dog hearts is recorded as “inconsistent effects”. Further, in data set [3], the adenosine uptake result is “adenosine uptake was reportedly inhibited”. Further, the “blood pressure and heart rate” value with anesthetized rats was “decrease blood pressure and heart rate in anesthetized rats”. For the same compound, the “flaccidity and spontaneous locomotor activity” value with mice [4] is “pronounced general flaccidity and much-reduced spontaneous locomotor activity in mice”. The perfusate adenosine concentration result in the data set with isolated rat hearts (hypoxic, anoxic or ischemic conditions) is listed as “no increase in perfusate adenosine concentration”; in the data set on isolated rat hearts (normoxic conditions) it was “no increase in perfusate adenosine concentration”. Moreover, the “protection against ischemic cerebral injury” value with ischemic cerebral injury is on record as “does not protect against ischemic cerebral injury”.

Turning to `C[C@H]1O[C@@H](n2cc(-c3ccccc3)c3c(Nc4ccc(F)cc4)ncnc32)[C@H](O)[C@@H]1O` [#1, 4-N-(4-fluorophenyl)amino-5-phenyl-7-(5-deoxy-1-β-D-ribofuranosyl)pyrrolo(2,3-d)pyrimidine], the ED50 – broadly, the dose at which the effect has come halfway, by size or by number of responders – with male SA rats [5] was 16.9 mg/kg; with male SA rats [6] (ip, >5 or <5 = fewer or more than 50% inhibited in initial screen at 5 mg/kg ip, read-out: Anticonvulsant ED50 (MES), ip), 1.9 mg/kg; in the data set on male SA rats [6] (setting [11]), 5.1 mg/kg; in the data set with male SA rats [9], less than 10 mg/kg. Also, the “Carrageenan Paw (% inh)” value in [7] is 0.2%. Also, the IC50 (as a rule, the concentration needed to halve the response being measured) in data set [8] is 11 nM.

`C[C@H]1O[C@@H](n2cc(-c3ccccc3)c3c(Nc4ccc(C#N)cc4)ncnc32)[C@H](O)[C@@H]1O` [#21, 4-N-(4-cyanophenyl)amino-5-phenyl-7-(5-deoxy-1-β-D-ribofuranosyl)pyrrolo[2,3-d]pyrimidine]: in the data set on male SA rats [6] (setting [11]), the ED50 is more than 20 mg/kg. For the same compound, in data set [8], half-maximal inhibition (IC50) was put at 14 nM. Moreover, the bioavailability in data set [10] was 23%.

`COc1ccc(-c2cn([C@@H]3O[C@H](C)[C@@H](O)[C@H]3O)c3ncnc(Nc4ccc(C#N)cc4)c23)cc1` [#27, 4-N-(4-cyanophenyl)amino-5-(4-methoxyphenyl)-7-(5-deoxy-1-β-D-ribofuranosyl)pyrrolo[2,3-d]pyrimidine]: the bioavailability in data set [10] was 100%.
